These results are taken from patent US20190282560A1, “1-Methylnicotinamide for the Treatment of Diseases Associated With C-Reactive Protein” (Pharmena S.A., priority 2016, published 2019).

This assay concerns C-reactive protein. The assay is described as follows: Randomized, double-blind, placebo controlled, forced dose-escalation, multicenter study; hs-CRP blood levels. In kind it is in vivo, human. An excerpt:
The study was a randomized, double-blind, placebo controlled, forced dose-escalation, multicenter study.
Inclusion Criteria • Patients were at least 18 years of age and ≤80 years of age at the time of informed consent; • Women of childbearing potential must have a negative urine pregnancy test at screening and visit 4.
Exclusion Criteria • Patients who were pregnant, planning to become pregnant during the study, or nursing • Patients who had with clinically significant electrocardiographic abnormalities at visit 1 or visit 4; • Patients who had body mass index>45 kg/m2 at visit 1; • Patients who had weight change of >5% of initial body weight between visits 1 and 4 (randomization); • Patients who had poorly controlled diabetes defined as a hemoglobin A1c>9.5% prior to visit 4 (randomization); • Patients who had evidence of hepatic disease (ALT or AST greater than 2.0 ULN, bilirubin greater than 1.5 ULN, or cirrhosis) at visit 1; • Patients who had renal dysfunction defined as glomerular filtration rate (GFR)<60 mL/min/1.73 m2 at visit 1; • Patients who had hypothyroidism that was not treated or not stable for at least 6 months prior to study entry; • Patients who had poorly controlled hypertension defined as a mean systolic blood pressure above 160 mm Hg and/or diastolic blood pressure above 100 mmHg at visit 1.
Following signature of informed consent, 164 patients received 1000 mg placebo three times daily with meals in a single-blind manner for a dietary-controlled baseline period of 6 to 8 weeks. From the sample of eligible subjects who completed the 6 to 8 week dietary-controlled baseline period, 71 subjects (22 received placebo and 49 received 1-MNA chloride) meeting all inclusion and no exclusion criteria were randomized in a double-blind manner ([…]) to the treatment arm. The treatment periods were: weeks 1 and 2 two 500 mg tablets administered three times daily with meals (total daily dose 3000 mg); weeks 3 to 14 two 1000 mg tablets administered three times daily with meals (total daily dose 6000 mg). Down titration to 3000 mg daily was allowed in the event that a subject could not tolerate the 6000 mg daily treatment for the stipulated period. Under this scenario, the down-titrated subject remained on the tolerated dose for the duration of the trial. hs-CRP blood levels were evaluated during the baseline period, upon randomization and throughout the active treatment period. All blood samples were collected following a 12-hour fast. Throughout the study, the subjects were required to adhere to a heart-healthy diet and abstain from/minimize ethyl alcohol intake. Safety and tolerability were assessed throughout the trial through the evaluation of physical exams, electrocardiograms, routine hematology ad blood chemistry testing, vital signs and adverse events.
In the analysis, adjusted geometric mean percent change was obtained by exponentiating the adjusted mean from the ANCOVA model, then subtracting 1 and multiplying by 100. Bounds of the 95% confidence intervals were obtained similarly. Based on the ANCOVA model of the change in log-transformed CRP including treatment group and log-transformed baseline value, the change in CRP level in blood in this study was approximately −17% relative to placebo.

The mark [1] stands for this setting: end of study, oral 3000 mg daily weeks 1-2, 6000 mg daily weeks 3 to 14, n 45.

Regarding `C[n+]1cccc(C(N)=O)c1` [1-MNA chloride, 1-methylnicotinamide], the “Lowering of blood or serum CRP level from baseline” value (baseline to end of study, 3000 then 6000 mg daily, 14 weeks) is listed as “about 16%”. Also, where the note is “baseline to end of study, ANCOVA on log-transformed CRP, 3000 then 6000 mg daily, 14 weeks”, the “Adjusted geometric mean percent change from baseline in C-reactive protein” value is reported as −15.66%. Further, the “C-reactive protein, Baseline, Geometric mean” value (baseline, before double-blind treatment, n 49) worked out at 2.9 mg/L. In addition, under “baseline, before double-blind treatment, patients with serum triglycerides 200-500 mg/dL, n 49”, the “C-reactive protein, Baseline, Mean ± SD” value turned out to be 4.0 ± 5.4 mg/L. Under setting [1], the “C-reactive protein, End of study, Geometric mean” value was 2.4 mg/L and the “C-reactive protein, End of study, Mean ± SD” value turned out to be 3.3 ± 3.2 mg/L. For the same compound, where the note is “oral 3000 mg daily weeks 1-2, 6000 mg daily weeks 3 to 14, n 45”, the “C-reactive protein, Change from baseline to end of study, Mean ± SD” value was -0.8 ± 4.7 mg/L.
